# Laboratory results reported in paper PMC9401617 (Science Advances, 2022).
# Where a chain is given by its changes, count along the chain named. Where two headings read alike, the source gives them in different places.
# Experiments:
# [1] = target: T1, hUHRF1 (Homo sapiens, UniProt Q96T88, D142A); assay: MST with labeled recombinant mutant protein; type: binding
# T1 sequence (Q96T88 1-793 D142A): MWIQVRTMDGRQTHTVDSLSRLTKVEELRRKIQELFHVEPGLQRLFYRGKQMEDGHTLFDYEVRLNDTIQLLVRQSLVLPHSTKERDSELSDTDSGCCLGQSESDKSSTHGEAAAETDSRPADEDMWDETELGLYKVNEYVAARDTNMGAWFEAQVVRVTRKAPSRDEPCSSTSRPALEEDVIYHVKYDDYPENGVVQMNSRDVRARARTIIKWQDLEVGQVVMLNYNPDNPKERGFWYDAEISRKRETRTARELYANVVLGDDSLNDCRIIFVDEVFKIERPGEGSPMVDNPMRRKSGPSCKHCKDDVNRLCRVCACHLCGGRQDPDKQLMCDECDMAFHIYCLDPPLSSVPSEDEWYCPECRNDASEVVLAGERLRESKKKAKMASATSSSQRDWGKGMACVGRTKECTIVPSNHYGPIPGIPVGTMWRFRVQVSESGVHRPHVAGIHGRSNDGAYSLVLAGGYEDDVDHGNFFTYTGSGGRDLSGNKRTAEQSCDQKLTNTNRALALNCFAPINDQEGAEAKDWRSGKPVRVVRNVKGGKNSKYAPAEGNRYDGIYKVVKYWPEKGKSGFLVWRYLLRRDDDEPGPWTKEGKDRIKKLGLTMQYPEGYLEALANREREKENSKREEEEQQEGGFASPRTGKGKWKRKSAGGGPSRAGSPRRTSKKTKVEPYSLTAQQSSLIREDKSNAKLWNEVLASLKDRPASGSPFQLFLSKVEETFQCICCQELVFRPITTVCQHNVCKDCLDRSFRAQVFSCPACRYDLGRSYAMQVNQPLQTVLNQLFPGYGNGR
# [2] = target: T2, hUHRF1 (Homo sapiens, UniProt Q96T88); assay: MST with labeled recombinant protein; type: binding
# T2 sequence (Q96T88 1-793): T1 sequence (Q96T88 1-793 D142A) with A142D
# [3] = target: T2, hUHRF1; assay: MST with labeled recombinant protein; type: binding; remark: listed apart in the source
# [4] = target: T3, hUHRF1 (Homo sapiens, UniProt Q96T88, R649A); assay: MST with labeled recombinant mutant protein; type: binding
# T3 sequence (Q96T88 1-793 R649A): T1 sequence (Q96T88 1-793 D142A) with A142D, R649A
# [5] = test system: hUHRF1 (Homo sapiens); assay: EMSA
compound,measurement,setting,value
"CCCCCCCCCCCCCCCC(=O)OC[C@H](COP(=O)(O)O[C@H]1[C@H](O)[C@@H](OP(=O)(O)O)[C@H](O)[C@@H](O)[C@H]1O)OC(=O)CCCCCCCCCCCCCCC [D142*, di-C 16:0 PI5P]",Kd,[1],60 µM
"CCCCCCCCCCCCCCCC(=O)OC[C@H](COP(=O)(O)O[C@@H]1[C@H](O)[C@H](OP(=O)(O)O)[C@@H](O)[C@H](O)[C@H]1O)OC(=O)CCCCCCCCCCCCCCC [PI3P, di-C 16:0 PI3P]",Kd,[2],5.5 µM
"CCCCCCCCCCCCCCCC(=O)OC[C@H](COP(=O)(O)O[C@H]1[C@H](O)[C@@H](OP(=O)(O)O)[C@H](O)[C@@H](O)[C@H]1O)OC(=O)CCCCCCCCCCCCCCC [PI5P, di-C 16:0 PI5P]",Kd,[3],4.7 µM
"CCCCCCCCCCCCCCCC(=O)OC[C@H](COP(=O)(O)O[C@H]1[C@H](O)[C@@H](OP(=O)(O)O)[C@H](O)[C@@H](O)[C@H]1O)OC(=O)CCCCCCCCCCCCCCC [R649*, di-C 16:0 PI5P]",Kd,[4],3 µM
"H3unmodified mononucleosome, 147 bp Widom 601",Kd,[5],1100 nM
